Laboratory results as given in patent US20230022859A1, “TREATMENT OF CANCER WITH ANTI-OX40 ANTIBODIES AND MULTI-KINASE INHIBITORS” (BEIGENE, LTD., priority 2019, published 2023).
One block for each molecule: values may come before it.

Legend:
[1] = test system: tyrosine kinases, including RET, CBL, CHR4q12, DDR and Trk; conditions: cited from earlier work
[2] = test system: MC38 cells, a murine colon adenocarcinoma line; test: MC38 syngeneic colon adenocarcinoma model, 1A7.gr1 and Compound 1; format: in vivo, C57BL/6 mice
Protocol: Female C57BL/6 mice were subcutaneously implanted with 2×10^7 MC38 cells, a murine colon adenocarcinoma line; in 100 μL PBS in the right frank. After inoculation, mice were randomized into 4 groups according to tumor volume. Mice were treated with vehicle (PEG400/0.1N HCL in saline, 40/60) as a control. 1A7.gr1 (sequence previously disclosed in US 20150307617) was confirmed to bind to mouse OX40 in house.
The 1A7.gr1 antibody was administered at 2 mg/kg per week by intraperitoneal injection as a single agent. […] The 1A7.gr1 antibody in combination with Compound 1 was administered at the same dosages and routes of administration as described above. Tumor volumes were determined twice weekly.

[3] = test system: CT26WT cells, a murine colon cancer cell line; test: CT26WT syngeneic colon tumor model, OX86 and Compound 1; format: in vivo, BALB/c mice; conditions: OX86 0.08 mg/kg QW i.p.; Compound 1 15 mg/kg QD p.o.
Protocol: Female BALB/c mice were subcutaneously implanted with 1×10^5 CT26WT cells, a murine colon cancer cell line, in 100 μL PBS in the right flank. After inoculation, the mice were randomized into 4 groups with 20 animals in each group according to the inoculation order. The mice were treated with vehicle (PEG400/0.1N HCl in saline, 40/60) as a negative control.
As monotherapy, OX86 was administered at 0.08 mg/kg once per week (QW) by intraperitoneal (i.p.) injection
Compound 1 was administered as a single therapy at 15 mg/kg once per day (QD) by oral gavage (p.o.). OX86 was administered at 0.08 mg/kg once per week (QW) by intraperitoneal (i.p.) injection in combination with Compound 1 at 15 mg/kg once per day (QD) by oral gavage (p.o.). Tumor volume was determined twice weekly in two dimensions using a caliper, and was expressed in mm3 using the formula: V=0.5(a×b2) where a and b are the long and short diameters of the tumor, respectively. Data is presented as mean tumor volume ±standard error of the mean (SEM). Tumor growth inhibition (TGI) is calculated using the following formula: […]

[4] = biological target: T1, interaction between OX40 and OX40 ligand (Mus musculus, UniProt P47741); conditions: cited from earlier work
T1 sequence (P47741 20-272): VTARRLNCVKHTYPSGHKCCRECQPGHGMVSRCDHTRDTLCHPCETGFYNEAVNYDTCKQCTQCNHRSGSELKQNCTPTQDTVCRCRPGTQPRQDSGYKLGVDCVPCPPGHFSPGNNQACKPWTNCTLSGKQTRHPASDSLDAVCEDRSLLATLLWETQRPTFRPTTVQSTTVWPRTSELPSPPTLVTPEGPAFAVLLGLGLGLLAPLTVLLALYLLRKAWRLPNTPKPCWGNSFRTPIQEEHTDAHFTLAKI
T1 sequence (P43488 1-198 partner): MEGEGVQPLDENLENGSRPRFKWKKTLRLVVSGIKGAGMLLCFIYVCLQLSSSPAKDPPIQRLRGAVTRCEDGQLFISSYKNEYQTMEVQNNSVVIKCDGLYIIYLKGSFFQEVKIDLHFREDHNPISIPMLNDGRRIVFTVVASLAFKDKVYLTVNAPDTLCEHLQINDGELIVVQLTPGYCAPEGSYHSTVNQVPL

[5] = biological target: T2, full-length human OX40 expressed on HuT78/OX40 cells (human, UniProt P43489 29-277); test: FACS; cells not named in the sentence (taken as OX40-expressing cells); reference 445-2
T2 sequence: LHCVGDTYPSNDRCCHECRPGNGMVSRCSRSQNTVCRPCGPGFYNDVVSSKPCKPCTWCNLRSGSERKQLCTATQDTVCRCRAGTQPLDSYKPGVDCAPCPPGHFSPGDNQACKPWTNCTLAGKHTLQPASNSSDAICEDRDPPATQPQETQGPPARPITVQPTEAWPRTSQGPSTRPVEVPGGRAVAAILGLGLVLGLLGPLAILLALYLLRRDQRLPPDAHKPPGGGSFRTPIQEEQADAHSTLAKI

[6] = biological target: T3, recombinant OX40 protein with a His tag (Cat: 10481-H08H, Sino Biological) (UniProt P43489 29-216); test: Biacore; OX40 protein not given; reference 445-2
T3 construct: Bought protein; not shown: His tag
T3 sequence (looked up): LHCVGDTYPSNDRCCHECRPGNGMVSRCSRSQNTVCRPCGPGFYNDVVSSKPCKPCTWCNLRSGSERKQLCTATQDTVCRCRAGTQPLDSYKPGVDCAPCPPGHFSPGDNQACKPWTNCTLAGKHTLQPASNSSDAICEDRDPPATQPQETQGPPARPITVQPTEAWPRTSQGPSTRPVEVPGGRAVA

[7] = 1A7.gr1 2 mg/kg QW i.p., Compound 1 15 mg/kg QD p.o.

Molecule: COCCNCc1ccc(-c2cc3nccc(Oc4ccc(NC(=O)C5(C(=O)Nc6ccc(F)cc6)CC5)cc4F)c3s2)nc1 [Compound 1]
inhibition of tyrosine kinases [1]: potent inhibition
Mean Tumor Volume on Day 29 (mean ± SEM) [2, 7]: 712.5 mm^3
TGI (%) on Day 22 [2, 7]: 80%
complete response / mice being tumor free on day 22 ([2]; 1A7.gr1 2 mg/kg QW×4, Compound 1 15 mg/kg QD×22): 80%
Mean Tumor Volume on Day 24 (mean ± SEM) [3]: 177.4 ± 28.5 mm^3
TGI (%) on Day 24 [3]: 91%
Tumor Free Animal (%) on Day 69 (complete responders) [3]: 5%

B1: OX86: rat anti-mouse OX40 antibody of WO2016/057667 engineered with mouse IgG2a constant regions, VH SEQ ID NO: 32, VL SEQ ID NO: 33 (antibody, V domains shown)
VH: QVQLKESGPGLVQPSQTLSLTCTVSGFSLTGYNLHWVRQPPGKGLEWMGRMRYDGDTYYNSVLKSRLSISRDTSKNQVFLKMNSLQTDDTAIYYCTRDGRGDSFDYWGQGVMVTVSS
VL: DIVMTQGALPNPVPSGESASITCRSSQSLVYKDGQTYLNWFLQRPGQSPQLLTYWMSTRASGVSDRFSGSGSGTYFTLKISRVRAEDAGVYYCQQVREYPFTFGSGTKLEIK
modifications: mouse IgG2a constant regions
Mean Tumor Volume on Day 24 (mean ± SEM) [3]: 308.5 ± 115.8 mm^3
TGI (%) on Day 24 [3]: 84%
Tumor Free Animal (%) on Day 69 (complete responders) [3]: 50%
blocking of OX40-OX40 ligand interaction [4]: does not block the interaction between OX40 and OX40 ligand

fold increase to the EC50 over the original 445-2 antibody [5]: 1.7 fold
B2: 445-2 variant with K28T in the heavy chain and S24R in the light chain (antibody, V domains shown)
VH: QVQLVQSGAEVKKPGSSVKVSCKASGYTFTSYIIHWVRQAPGQGLEWMGYINPYNEGTRYAQKFQGRVTLTADKSTSTAYMELSSLRSEDTAVYYCARGYYGSSYAMDYWGQGTTVTVSS
VL: DIQMTQSPSSLSASVGDRVTITCRASQGISNYLNWYQQKPGKAIKLLIYDASTLYSGVPSRFSGSGSGTDFTLTISSLQPEDFATYYCQQYSKLPYTFGGGTKVEIK

fold increase to the KD over the original 445-2 antibody [6]: 1.7 fold
B3: 445-2 variant with Y27G in the heavy chain and S24R in the light chain (antibody, V domains shown)
VH: QVQLVQSGAEVKKPGSSVKVSCKASGGKFTSYIIHWVRQAPGQGLEWMGYINPYNEGTRYAQKFQGRVTLTADKSTSTAYMELSSLRSEDTAVYYCARGYYGSSYAMDYWGQGTTVTVSS
VL: DIQMTQSPSSLSASVGDRVTITCRASQGISNYLNWYQQKPGKAIKLLIYDASTLYSGVPSRFSGSGSGTDFTLTISSLQPEDFATYYCQQYSKLPYTFGGGTKVEIK
